The GI50 is the concentration giving 50% growth inhibition.

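Five compound concentrations were applied to cells in 96-well plates for 48 hours; endpoints were derived by simple linear interpolation of the resulting dose-response curve. GI50: concentration for 50% inhibition of growth.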 Activity calls are given as the source filed them. Cut-off read from the data, not from the text of the source: active = GI50 up to about 1.1 µM and inactive = higher.

Among the test systems are BT-549; UO-31; HCC 2998; SK-MEL-28; RXF 393; ACHN; CAKI-1; SK-MEL-2; SF-539; RPMI-8226; DU-145; LOX IMVI; MCF7; HOP-62; IGROV-1; HT-29; MOLT-4; HL-60; HOP-92; NCI-H460.
Common to all, as to assay: DTP human tumour cell line panel, 48 h

Turning to `C/C(=N\O)c1cccc[n+]1Cc1ccccc1`, the GI50 with BT-549, with UO-31, in the assay with HCC 2998, in the assay with SK-MEL-28, in the assay on RXF 393 and in the assay with ACHN was > 100 µM (inactive) in each case. The GI50 with CAKI-1, in the assay on SK-MEL-2, in the assay on SF-539, with RPMI-8226, in the assay with DU-145 and in the assay with LOX IMVI was > 100 µM (inactive) in each case. Also, the GI50 in the assay on MCF7, with HOP-62, in the assay with IGROV-1, with HT-29, with MOLT-4 and in the assay on HL-60 was > 100 µM (inactive) in each case. The GI50 in the assay on HOP-92 and in the assay with NCI-H460 was > 100 µM (inactive) each time.

Turning to `Oc1ccccc1CNCc1ccccc1O`, the GI50 was > 100 µM (inactive) in the assay on BT-549; 90.2 µM (inactive) in the assay on UO-31; 19.2 µM (inactive) in the assay with HCC 2998; > 100 µM (inactive) in the assay on SK-MEL-28; > 100 µM (inactive) in the assay with RXF 393; > 100 µM (inactive) in the assay with ACHN. For the same compound, the GI50 in the assay on CAKI-1 is > 100 µM (inactive); in the assay with SK-MEL-2, > 100 µM (inactive); with SF-539, 56.1 µM (inactive); with RPMI-8226 it was 32.7 µM (inactive); in the assay on DU-145 it was > 100 µM (inactive); with LOX IMVI it was 65.2 µM (inactive). Further, the GI50 was > 100 µM (inactive) with MCF7; > 100 µM (inactive) in the assay with HOP-62; > 100 µM (inactive) in the assay on IGROV-1; > 100 µM (inactive) in the assay with HT-29; 88.5 µM (inactive) in the assay on MOLT-4; > 100 µM (inactive) in the assay on HL-60. The GI50 is 99.5 µM (inactive) in the assay on HOP-92 and 78.5 µM (inactive) with NCI-H460.

For the compound `CC(C)NC(=O)OCc1c(COC(=O)NC(C)C)c(-c2cc[n+](COC(=O)C(C)(C)C)cc2)n2c1CCC2`, the GI50 is > 100 µM (inactive) in the assay on BT-549; > 100 µM (inactive) in the assay with UO-31; > 100 µM (inactive) in the assay on HCC 2998; > 100 µM (inactive) in the assay with SK-MEL-28; > 100 µM (inactive) with RXF 393; 61.9 µM (inactive) with ACHN. In addition, the GI50 in the assay on CAKI-1 was 60 µM (inactive); with SK-MEL-2, > 100 µM (inactive); in the assay with SF-539 it was > 100 µM (inactive); in the assay with RPMI-8226 it was > 100 µM (inactive); with DU-145 it was > 100 µM (inactive); in the assay with LOX IMVI, > 100 µM (inactive). Also, the GI50 with MCF7, in the assay with HOP-62, in the assay with IGROV-1, in the assay on HT-29, with MOLT-4 and in the assay on HL-60 was > 100 µM (inactive) in each case. Further, the GI50 in the assay with HOP-92 and with NCI-H460 was > 100 µM (inactive) in each case.

For the compound `CC(C)[Si]1(C(C)C)OCC2OC(n3ccc(=O)[nH]c3=O)C([Se]c3ccccc3)C2O[Si](C(C)C)(C(C)C)O1` (stereo not given), the GI50 with BT-549 is 11.6 µM (inactive); in the assay on UO-31, 8.77 µM (inactive); with HCC 2998, 1.58 µM (inactive); in the assay on SK-MEL-28, 3.59 µM (inactive); in the assay with RXF 393, 4.55 µM (inactive); in the assay on ACHN it was 2.61 µM (inactive). The GI50 was 11.5 µM (inactive) with CAKI-1; 6.79 µM (inactive) with SK-MEL-2; 7.96 µM (inactive) in the assay on SF-539; 2.95 µM (inactive) with RPMI-8226; 12.2 µM (inactive) with DU-145; 0.769 µM (active) in the assay with LOX IMVI. The GI50 in the assay with MCF7 was 2.75 µM (inactive); in the assay with HOP-62 it was 12.3 µM (inactive); with IGROV-1, 2.44 µM (inactive); in the assay on HT-29, 1.66 µM (inactive); with MOLT-4, 7.38 µM (inactive); with HL-60, 5.89 µM (inactive). Besides, the values for the GI50 in the assay on HOP-92 and in the assay with NCI-H460 were 3.5 µM (inactive) and 1.87 µM (inactive), respectively.

Turning to `CCOC(=O)/C=C(\C(=O)OCC)n1cnc2c(N)ncnc21`, the GI50 was 12.1 µM (inactive) in the assay on BT-549; 16.5 µM (inactive) with UO-31; 16 µM (inactive) with HCC 2998; 13.6 µM (inactive) with SK-MEL-28; 12.6 µM (inactive) in the assay on RXF 393; 6.67 µM (inactive) with ACHN. Further, the GI50 with CAKI-1 was 1.4 µM (inactive); in the assay on SK-MEL-2 it was 16.8 µM (inactive); with SF-539, 14.1 µM (inactive); in the assay on RPMI-8226, 2.02 µM (inactive); in the assay with DU-145, 15.6 µM (inactive); with LOX IMVI, 3.43 µM (inactive). Moreover, the GI50 was 2.64 µM (inactive) with MCF7; 22.6 µM (inactive) in the assay with HOP-62; 10.8 µM (inactive) in the assay on IGROV-1; 6.68 µM (inactive) in the assay on HT-29; 2.44 µM (inactive) with MOLT-4; 0.931 µM (active) in the assay with HL-60. The results for the GI50 in the assay with HOP-92 and with NCI-H460 were 2.28 µM (inactive) and 17.9 µM (inactive), respectively.

For the compound `COc1ccccc1/C=N/Nc1nnc2c3ccccc3c3ncccc3c2n1`, the GI50 is 41.7 µM (inactive) with BT-549; > 100 µM (inactive) in the assay with UO-31; 71.9 µM (inactive) in the assay with HCC 2998; > 100 µM (inactive) in the assay with SK-MEL-28; 18.1 µM (inactive) in the assay on RXF 393; 57 µM (inactive) in the assay on ACHN. Further, the GI50 is > 100 µM (inactive) in the assay with CAKI-1; 24.2 µM (inactive) with SK-MEL-2; 19 µM (inactive) with SF-539; 69.2 µM (inactive) in the assay on RPMI-8226; > 100 µM (inactive) in the assay on DU-145; 64.1 µM (inactive) with LOX IMVI. The GI50 with MCF7 is > 100 µM (inactive); with HOP-62, 17.1 µM (inactive); in the assay on IGROV-1, 53.1 µM (inactive); in the assay with HT-29 it was 57.4 µM (inactive); in the assay with MOLT-4, 60.3 µM (inactive); with HL-60, > 100 µM (inactive). The GI50 in the assay on HOP-92 was 14.6 µM (inactive); with NCI-H460 it was 45.1 µM (inactive).

In the case of `CCOC(=O)CCCc1cc(O)c2c(C)c3[nH]c4ccc(Cl)cc4c3c(C)c2n1`, the GI50 in the assay on BT-549 was 19 µM (inactive); with UO-31, 20.1 µM (inactive); in the assay with HCC 2998, 44.4 µM (inactive); with SK-MEL-28 it was 28.3 µM (inactive); in the assay with RXF 393, 12.7 µM (inactive); in the assay with ACHN it was 24.3 µM (inactive). The GI50 in the assay with CAKI-1 is 24.9 µM (inactive); with SK-MEL-2, 26.9 µM (inactive); with SF-539, 14.6 µM (inactive); with RPMI-8226, 32.6 µM (inactive); in the assay with DU-145, 23.8 µM (inactive); in the assay with LOX IMVI it was 38.7 µM (inactive). For the same compound, the GI50 is 15.9 µM (inactive) in the assay with MCF7; 20.7 µM (inactive) in the assay on HOP-62; 30.2 µM (inactive) with IGROV-1; 23.7 µM (inactive) in the assay with HT-29; 49.8 µM (inactive) in the assay with MOLT-4; 24 µM (inactive) in the assay on HL-60. Also, the GI50 in the assay on HOP-92 was 22 µM (inactive); in the assay on NCI-H460, 16.5 µM (inactive).

`CCSc1nc(N2CCCC2)s[s+]1.[O-][Cl+3]([O-])([O-])[O-]`: the GI50 with BT-549 was 33 µM (inactive); in the assay on UO-31 it was 42.1 µM (inactive); with HCC 2998 it was 73.6 µM (inactive); in the assay with SK-MEL-28, 36.5 µM (inactive); in the assay with RXF 393, 30.9 µM (inactive); in the assay with ACHN, 54.3 µM (inactive). Further, the GI50 was 43 µM (inactive) in the assay on CAKI-1; 60.7 µM (inactive) with SK-MEL-2; 43 µM (inactive) in the assay with SF-539; 0.318 µM (active) in the assay with RPMI-8226; > 100 µM (inactive) in the assay with DU-145; 19.1 µM (inactive) in the assay on LOX IMVI. Also, the GI50 with MCF7 is 0.167 µM (active); in the assay on HOP-62, 56.5 µM (inactive); with IGROV-1 it was 4.07 µM (inactive); with HT-29, 0.582 µM (active); with MOLT-4 it was 3.29 µM (inactive); in the assay with HL-60, 2.92 µM (inactive). In addition, the GI50 in the assay on HOP-92 was 64.7 µM (inactive); with NCI-H460 it was 0.225 µM (active).

The values are drawn from ChEMBL document CHEMBL1201862, “PubChem BioAssay data set” (2004).
